Molecules are shown by their SMILES. Values after ≈ are worked out from the molar mass of the structure shown. Active and inactive are the calls of the source. No cut-off for these calls is given here.

The target of data set [1] is T1, Acyl-CoA desaturase 1 (Mus musculus, UniProt P13516).
T1 sequence (P13516 whole entry): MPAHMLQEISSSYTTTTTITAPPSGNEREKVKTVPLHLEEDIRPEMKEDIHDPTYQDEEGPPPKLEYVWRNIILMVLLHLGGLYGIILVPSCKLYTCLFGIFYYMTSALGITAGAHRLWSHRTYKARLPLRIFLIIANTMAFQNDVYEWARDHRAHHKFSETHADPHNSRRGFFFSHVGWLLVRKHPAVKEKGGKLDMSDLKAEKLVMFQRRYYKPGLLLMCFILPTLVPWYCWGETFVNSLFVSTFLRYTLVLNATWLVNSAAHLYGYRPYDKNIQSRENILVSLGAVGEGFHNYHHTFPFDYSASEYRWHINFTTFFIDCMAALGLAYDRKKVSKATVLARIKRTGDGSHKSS
The data set is described as follows: Inhibition of Scd1 in mouse liver microsomes assessed as conversion of [14C]stearate to [14C]oleate pretreated for 10 mins measured after 60 mins. Further details: species or system Microsome.

Data set [2] deals with T2, Stearoyl-CoA desaturase (Homo sapiens, UniProt O00767).
T2 sequence (O00767 whole entry): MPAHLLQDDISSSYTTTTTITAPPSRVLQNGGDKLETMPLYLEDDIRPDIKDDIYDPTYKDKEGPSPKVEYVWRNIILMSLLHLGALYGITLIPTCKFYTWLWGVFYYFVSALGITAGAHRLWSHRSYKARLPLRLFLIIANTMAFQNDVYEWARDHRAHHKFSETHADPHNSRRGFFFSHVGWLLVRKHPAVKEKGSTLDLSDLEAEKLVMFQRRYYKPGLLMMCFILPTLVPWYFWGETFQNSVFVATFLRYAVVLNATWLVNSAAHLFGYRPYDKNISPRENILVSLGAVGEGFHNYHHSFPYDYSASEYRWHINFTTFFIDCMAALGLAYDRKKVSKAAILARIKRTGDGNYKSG
The data set is described as follows: Inhibition of Scd1 in human HEK293A cell microsomes assessed as conversion of [14C]stearate to [14C]oleate pretreated for 10 mins measured after 60 mins. Further details: species or system HEK293-A, Microsome.

Data set [3] addresses T3, Stearoyl-CoA desaturase (Homo sapiens) (UniProt O00767).
T3 sequence (whole entry): T2 sequence (O00767 whole entry)
The data set is described as follows: Inhibition of human Scd1 assessed as conversion of [14C]stearate to [14C]oleate at 10 uM pretreated for 30 mins measured after 4 hrs.

Data set [4] in a line: Solubility in neutral solution at pH 6.8. The format is physicochemical.
Data set [5] has as its target T2, Stearoyl-CoA desaturase. The data set is described as follows: Inhibition of human Scd1 expressed in HEK293A cells assessed as conversion of [14C]stearate to [14C]oleate pretreated for 30 mins measured after 4 hrs. The format is cell-based, HEK293-A.
Data set [6] in a line: Solubility in aqueous acidic solution at pH 1.2. Format: physicochemical.
Data set [7] is described as follows: Metabolic stability in mouse liver S9 fraction assessed as compound remaining after 30 mins. Format: ADME, subcellular. The following applies: read-out: Stability.
The subject of data set [8] is Mus musculus. The data set is described as follows: Inhibition of Scd1 in po dosed db/db mouse assessed as [14C]oleate to [14C]stearate ratio in liver administered 2 hrs before [14C]stearate challenge measured after 1 hr. The format is functional. Conditions: read-out: ID50 (the source's name).
A short description of data set [9]: AUC (0 to 8 hrs) in C57BL/6 mouse at 20 mg/kg, po. Format: ADME, organism-based. Further details: time < 8 hr, dose 20 mg/kg, route oral. Conditions: plasma.
Data set [10] in a line: Clearance in C57BL/6 mouse at 5 mg/kg, iv. Format: ADME, organism-based. Further details: dose 5 mg/kg, route intravenous. Conditions: in vivo.
A short description of data set [11]: Volume of distribution in C57BL/6 mouse at 5 mg/kg, iv. The format is ADME, organism-based. Details: dose 5 mg/kg, route intravenous. Conditions: in vivo.
Data set [12] in a line: Half life in C57BL/6 mouse at 5 mg/kg, iv. Format: ADME, organism-based. Further details: dose 5 mg/kg, route intravenous. Conditions: in vivo.
The nature of data set [13]: Oral bioavailability in C57BL/6 mouse at 20 mg/kg. The format is ADME, organism-based. Conditions: in vivo.
Data set [14] can be described thus: Cmax in C57BL/6 mouse at 20 mg/kg, po. Format: ADME, organism-based. Further details: dose 20 mg/kg, route oral. The following applies: in vivo.
A short description of data set [15]: Half life in C57BL/6 mouse at 20 mg/kg, po. Conditions: in vivo. Further details: dose 20 mg/kg, route oral. Format: ADME, organism-based.
The subject of data set [16] is Rattus norvegicus. The experiment in a line: Reduction of plasma glucose level in Zucker fatty rat at 30 mg/kg, po qd for 7 days. Format: functional, organism-based. Details: dose 30 mg/kg.
The subject of data set [17] is Rattus norvegicus. The experiment in a line: Toxicity in Zucker fatty rat assessed as induction of cutaneous abnormalities at 30 mg/kg, po qd for 7 days. Format: organism-based. Details: dose 30 mg/kg, route oral. The following applies: in vivo, 168 h.
Data set [18] relates to Rattus norvegicus. The data set is described as follows: Toxicity in Zucker fatty rat assessed as induction of narrow eye fissure at 30 mg/kg, po qd for 7 days. Further details: dose 30 mg/kg, route oral. The format is organism-based. Conditions: in vivo, 168 h.
Data set [19] concerns Rattus norvegicus. The data set is described as follows: Reduction of plasma triglyceride level in po dosed Zucker fatty rat administered qd for 7 days. Format: functional, organism-based.
Data set [20] relates to Rattus norvegicus. The experiment in a line: Toxicity in Zucker fatty rat assessed as reduction of body weight at 30 mg/kg, po qd for 7 days. Format: organism-based. Further details: dose 30 mg/kg, route oral; scale not given: the % may be the effect or the level left. Conditions: in vivo, 168 h.
Data set [21] deals with Rattus norvegicus. The experiment in a line: Reduction of plasma insulin level in Zucker fatty rat at 30 mg/kg, po qd for 7 days. Format: functional, organism-based. Further details: dose 30 mg/kg.
Data set [22] deals with Rattus norvegicus. The experiment in a line: Reduction of plasma triglyceride level in Zucker fatty rat at 30 mg/kg, po qd for 7 days. The format is functional. Details: scale not given: the % may be the effect or the level left.

In general, IC50 refers to the concentration that inhibits the measured activity by half. Broadly, the inhibition is the percentage by which the read-out fell short of the control. By solubility is commonly meant how much of the substance goes into solution per volume. In the case of `O=C(NCC(O)c1ccccc1)c1ccc(N2CCC(C(=O)c3ccccc3C(F)(F)F)CC2)nn1` (stereo unspecified), the IC50 in data set [1] was 0.002 µM; in data set [2], 0.007 µM; in data set [5] it was 0.014 µM. In addition, in data set [3], the inhibition stood at 9%. The solubility in [4] is under 0.5 µM; in data set [6] it was 84 µM (≈ 41.9 µg/mL). In addition, the remaining at 0.5 h in data set [7] worked out at 47%.
In the case of `Cc1ccccc1C(=O)C1CCN(c2ccc(C(=O)NCC(O)c3ccsc3)nn2)CC1` (stereo unspecified), the values for the IC50 in data set [1], in data set [2] and in [5] were 0.003 µM, 0.007 µM and 0.021 µM, respectively. Moreover, the ED50 in data set [8] was determined as 16 mg/kg.
Regarding `O=C(NCC(O)c1ccccc1)c1ccc(N2CCC(C(=O)c3ccc(F)cc3)CC2)nn1` (stereo unspecified), the IC50 in data set [1] stood at 0.074 µM; in data set [2], 0.118 µM; in data set [5] it was 0.08 µM. Further, the inhibition in [3] was found to be 12%.
Take `O=C(NCC(O)c1ccccc1)c1ccc(N2CCC(C(=O)c3ccccc3OC(F)(F)F)CC2)nn1` (stereo unspecified): the IC50 in [1] worked out at 0.005 µM; in data set [2] it was 0.01 µM; in data set [5], 0.103 µM. In addition, the inhibition in [3] is under 5%. The solubility in data set [4] was under 0.5 µM; in data set [6], 83 µM (≈ 42.7 µg/mL). Further, in data set [7], the remaining at 0.5 h was 22%.
Turning to `O=C(NCCc1ccccc1)c1ccc(N2CCN(C(=O)c3ccccc3C(F)(F)F)CC2)cn1`, the IC50 in data set [1] is 0.37 µM; in [2] it was 0.25 µM.
Consider `COc1ccccc1C(=O)C1CCN(c2ccc(C(=O)NCC(O)c3ccccc3)nn2)CC1` (stereo unspecified), for which the IC50 in [1] stood at 0.052 µM; in [2], 0.311 µM; in data set [5], 1.05 µM. In addition, the inhibition in data set [3] was under 5%.
`Cc1ccccc1C(=O)C1CCN(c2ccc(C(=O)NCC(O)c3cccs3)nn2)CC1` (stereo unspecified): the IC50 was determined as 0.007 µM in data set [1], 0.044 µM in [2] and 0.025 µM in data set [5]. For the same molecule, the ED50 in [8] stood at 14 mg/kg.
On to `Cc1ccccc1C(=O)C1CCN(c2ccc(C(=O)NCC(O)c3cccc(F)c3)nn2)CC1` (stereo unspecified), for which the IC50 in data set [1] stood at 0.005 µM; in data set [2], 0.006 µM; in data set [5] it was 0.011 µM. In addition, the ED50 in data set [8] amounted to 14 mg/kg.
In the case of `O=C(NCCc1ccccc1)c1ccc(N2CCN(C(=O)c3ccccc3C(F)(F)F)CC2)cc1`, the IC50 in data set [1] was 0.15 µM; in [2], 0.82 µM.
Consider `Cc1ccccc1C(=O)C1CCN(c2ccc(C(=O)NCC(O)c3ccccn3)nn2)CC1` (stereo unspecified), for which the IC50 is 0.095 µM in [1], 0.18 µM in data set [2] and 0.39 µM in data set [5].
With `O=C(NCC(O)c1ccccc1)c1ccc(N2CCC(C(=O)c3ccccc3)CC2)nn1` (stereo unspecified), the results for the IC50 in [1], in [2] and in data set [5] were 0.153 µM, 0.292 µM and 0.108 µM, respectively. Also, the inhibition in data set [3] is under 5%.
As usually defined, the AUC(0-t) is exposure summed from dosing to a finite time, without extrapolation to infinity. One may read the clearance as a measure of how efficiently the substance is removed, as volume per time. For orientation: Vd means the apparent volume that relates the amount in the body to the concentration in plasma or blood. For orientation: half-life means how long it takes for the measured level to halve. For orientation: bioavailability means the share of a dose that reaches the circulation, judged against a reference dose that is usually intravenous. As usually defined, the Cmax is the maximum level reached in the sampled fluid or tissue. Turning to `Cc1ccccc1C(=O)C1CCN(c2ccc(C(=O)NCC(O)c3ccccc3)nn2)CC1` (stereo unspecified), in data set [3], the inhibition is under 5%. This molecule also came in with an AUC(0-t) at 8 h in data set [9] of 500 ng·h/mL. The results for the solubility in data set [4] and in [6] were 3 µM (≈ 1.33 µg/mL) and 88 µM (≈ 39.1 µg/mL), respectively. Moreover, the clearance in [10] was determined as 42 mL/min/kg. The molecule also displayed a Vd in [11] of 0.9 L/kg. For the same molecule, the half-life in data set [12] is 36 min; in data set [15] it was 48 min. Besides, the bioavailability in data set [13] amounted to 6%. In data set [14], this molecule came in with a Cmax of 300 ng/mL. Further, the remaining at 0.5 h in [7] turned out to be 58%. The ED50 in data set [8] was 12 mg/kg.
Regarding `Cc1ccccc1C(=O)C1CCN(c2ccc(C(=O)NCC(O)c3ccccc3F)nn2)CC1` (stereo unspecified), the IC50 is 0.009 µM in data set [1], 0.022 µM in data set [2] and 0.06 µM in [5]. Further, the ED50 in data set [8] worked out at 17 mg/kg.
The corresponding values for `Cc1ccccc1C(=O)C1CCN(c2ccc(C(=O)NCC(O)c3ccc(F)cc3)nn2)CC1` (stereo unspecified) are 0.007 µM, 0.005 µM, 0.022 µM and 14 mg/kg.
As for `O=C(NCCc1ccccc1)c1ccc(N2CCN(C(=O)c3ccccc3C(F)(F)F)CC2)nc1`, the IC50 in [1] came to 0.194 µM; in data set [2], 0.099 µM.
Turning to `Cc1ccccc1C(=O)C1CCN(c2ccc(C(=O)NCC(O)c3ccncc3)nn2)CC1` (stereo unspecified), the IC50 in data set [1] turned out to be 0.034 µM; in [2], 0.187 µM; in data set [5], 0.144 µM.
In the case of `Cc1ccccc1C(=O)C1CCN(c2ccc(C(=O)NCC(O)c3cccnc3)nn2)CC1` (stereo unspecified), the outcome in [16] and in [21] was inactive. Besides, the Activity result in data set [17] was “Non-toxic”; in [18], “Non-toxic”; in data set [19] it was “Dose-dependent effect”; in [20] it was 15%; in data set [22] it was 56%. Besides, the IC50 in data set [1] was 0.037 µM; in [2], 0.028 µM; in data set [5], 0.043 µM. Also, the AUC(0-t) at 8 h in data set [9] is 7800 ng·h/mL. Moreover, the solubility in [4] was 29 µM (≈ 12.9 µg/mL); in data set [6] it was over 100 µM. Also, the clearance in data set [10] was determined as 29 mL/min/kg. Further, the Vd in data set [11] stood at 2.4 L/kg. In addition, the half-life was 78 min in data set [12] and 54 min in [15]. Also, the bioavailability in data set [13] came out at 68%. The same molecule displayed a peak concentration (Cmax) in data set [14] of 6300 ng/mL. Also, in data set [7], the remaining at 0.5 h worked out at 1.1%. The ED50 in data set [8] was 3 mg/kg.
